Assay results as given in patent publication US10280159B2 (AbbVie Deutschland GmbH & Co. KG, priority 2015, dated 2019).

Experiments:
Type in all cases: cell-based
[1] = target: T1, human S1PR5 (Homo sapiens, UniProt Q9H228); experiment: Intracellular Ca2+ release (FLIPR) agonist potency, S1P5; conditions: recombinant CHO-K1 cells expressing human S1PR5, aequorin, Gq/i5; Calcium 5 FLIPR; read-out: S1P5 EC50 range
T1 construct: host or cells: CHO-K1
Summary of the method: (§1)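 Recombinant CHO-K1 cells carrying the human receptor together with aequorin and the chimeric G protein Gq/i5 are exposed to test agonist, and Ca2+ mobilization is recorded by fluorometric imaging plate reader. Potency is derived from curve fitting relative to phospho-fingolimod.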

[2] = target: T2, human S1PR1 (Homo sapiens, UniProt P21453); experiment: Intracellular Ca2+ release (FLIPR) agonist potency, S1P1; conditions: recombinant CHO-K1 cells expressing human S1PR1, aequorin, Gq/i5; Calcium 5 FLIPR; read-out: S1P1 EC50
T2 construct: host or cells: CHO-K1
T2 sequence (P21453 whole entry): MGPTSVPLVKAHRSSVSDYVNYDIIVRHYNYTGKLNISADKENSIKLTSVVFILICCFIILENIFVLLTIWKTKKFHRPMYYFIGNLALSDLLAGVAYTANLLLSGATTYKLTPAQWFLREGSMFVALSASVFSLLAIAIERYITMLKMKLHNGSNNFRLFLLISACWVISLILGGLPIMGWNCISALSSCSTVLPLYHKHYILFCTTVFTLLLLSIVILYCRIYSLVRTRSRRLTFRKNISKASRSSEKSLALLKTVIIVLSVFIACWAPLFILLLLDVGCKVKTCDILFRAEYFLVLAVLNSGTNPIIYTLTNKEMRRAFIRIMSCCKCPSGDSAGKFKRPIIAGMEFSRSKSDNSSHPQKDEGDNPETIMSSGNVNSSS
Summary of the method: as §1

[3] = target: T3, human S1PR3 (Homo sapiens, UniProt Q99500); experiment: Intracellular Ca2+ release (FLIPR) agonist potency, S1P3; conditions: recombinant CHO-K1 cells expressing human S1PR3, aequorin, Gq/i5; Calcium 5 FLIPR; read-out: S1P3 EC50
T3 construct: host or cells: CHO-K1
T3 sequence (Q99500 whole entry): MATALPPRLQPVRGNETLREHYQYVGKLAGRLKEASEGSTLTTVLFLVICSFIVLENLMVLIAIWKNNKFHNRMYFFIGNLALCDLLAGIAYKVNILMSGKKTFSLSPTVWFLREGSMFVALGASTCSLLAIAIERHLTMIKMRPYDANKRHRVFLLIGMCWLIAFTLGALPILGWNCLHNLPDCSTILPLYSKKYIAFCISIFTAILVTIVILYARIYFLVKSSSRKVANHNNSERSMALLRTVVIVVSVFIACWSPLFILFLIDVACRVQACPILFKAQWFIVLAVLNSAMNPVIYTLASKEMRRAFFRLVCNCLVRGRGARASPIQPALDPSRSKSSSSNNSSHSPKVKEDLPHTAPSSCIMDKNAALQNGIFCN
Summary of the method: as §1

[4] = target: T4, human S1PR4 (Homo sapiens, UniProt O95977); experiment: Intracellular Ca2+ release (FLIPR) agonist potency, S1P4; conditions: recombinant CHO-K1 cells expressing human S1PR4, aequorin, Gq/i5; Calcium 5 FLIPR; read-out: S1P4 EC50
T4 construct: host or cells: CHO-K1
T4 sequence (O95977 1-384): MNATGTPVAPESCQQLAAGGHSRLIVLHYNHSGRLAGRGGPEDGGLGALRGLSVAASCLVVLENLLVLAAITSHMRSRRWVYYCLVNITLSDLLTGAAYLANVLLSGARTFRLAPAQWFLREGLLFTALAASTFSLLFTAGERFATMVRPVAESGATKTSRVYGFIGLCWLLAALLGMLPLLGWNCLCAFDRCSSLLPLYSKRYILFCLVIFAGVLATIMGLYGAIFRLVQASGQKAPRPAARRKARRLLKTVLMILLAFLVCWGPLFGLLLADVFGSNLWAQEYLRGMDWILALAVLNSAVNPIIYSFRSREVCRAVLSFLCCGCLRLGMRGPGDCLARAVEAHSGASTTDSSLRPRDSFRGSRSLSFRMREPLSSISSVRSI
Summary of the method: as §1

T1 sequence (Q9H228 whole entry): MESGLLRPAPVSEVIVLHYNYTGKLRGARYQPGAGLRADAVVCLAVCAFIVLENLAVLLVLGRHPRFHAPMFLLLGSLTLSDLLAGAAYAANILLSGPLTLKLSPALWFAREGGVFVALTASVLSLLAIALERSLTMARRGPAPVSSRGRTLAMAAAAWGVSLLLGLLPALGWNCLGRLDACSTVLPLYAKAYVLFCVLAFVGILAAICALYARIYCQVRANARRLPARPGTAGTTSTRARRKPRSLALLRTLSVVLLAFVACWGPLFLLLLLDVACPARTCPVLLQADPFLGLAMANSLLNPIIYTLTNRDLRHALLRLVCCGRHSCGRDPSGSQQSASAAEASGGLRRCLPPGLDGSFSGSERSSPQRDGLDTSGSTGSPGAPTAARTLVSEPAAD

| Structure (SMILES) | EC50 [1] [nM] | EC50 [2] [nM] | EC50 [3] [nM] | EC50 [4] [nM] |
| --- | --- | --- | --- | --- |
| O=C(O)COC1CCc2cc(OCc3c(F)ccc(Cl)c3F)ccc2C1 (stereo not drawn) [Compound 152, 2-[6-[(3-chloro-2,6-difluoro-phenyl)methoxy]tetralin-2-yl]oxyacetic acid] | < 10 | > 1000 | > 1000 | > 1000 |
| O=C(O)CCNC1CCc2cc(OCc3ccccc3Cl)ccc2C1 (stereo not drawn) [Compound 8, 3-((6-((2-chlorobenzyl)oxy)-1,2,3,4-tetrahydronaphthalen-2-yl)amino)propanoic acid] | < 10 | > 1000 | > 1000 | < 1000 |
| O=C(O)CCNC1CCc2cc(/C=C/c3c(Cl)cccc3Cl)ccc2C1 (stereo not drawn) [Compound 18, (E)-3-((6-(2,6-dichlorostyryl)-1,2,3,4-tetrahydronaphthalen-2-yl)amino)-propanoic acid] | < 10 | < 1000 | > 1000 | < 1000 |
| Cc1cccc(C)c1COc1ccc2c(c1)CCC(OCC(=O)O)C2 (stereo not drawn) [Compound 175, 2-[6-[(2,6-dimethylphenyl)methoxy]tetralin-2-yl]oxyacetic acid] | 10 to 100 | > 1000 | > 1000 | > 1000 |
| O=C(O)C1CN(C2COc3cc(C#Cc4cc(F)cc(F)c4)ccc3C2)C1 (stereo not drawn) [Compound 27, 1-(7-((3,5-difluorophenyl)ethynyl)chroman-3-yl)azetidine-3-carboxylic acid] | < 10 | > 1000 | > 1000 | < 1000 |
| O=C(O)C1CN(C2COc3cc(OCc4c(F)cccc4C(F)(F)F)ccc3C2)C1 (stereo not drawn) [Compound 66, 1-(7-((2-fluoro-6-(trifluoromethyl)benzyl)oxy)chroman-3-yl)azetidine-3-carboxylic acid] | 10 to 100 | > 1000 | > 1000 | < 1000 |
| O=C(O)C1CN(C2COc3cc(OCCc4c(Cl)cccc4Cl)ccc3C2)C1 (stereo not drawn) [Compound 69, 1-(7-(2,6-dichlorophenethoxy)chroman-3-yl)azetidine-3-carboxylic acid] | 10 to 100 | > 1000 | > 1000 | > 1000 |
| CCc1cccc(Cl)c1COc1ccc2c(c1)CCC(NCC(=O)O)C2 (stereo not drawn) [Compound 73, 2-((6-((2-chloro-6-ethylbenzyl)oxy)-1,2,3,4-tetrahydronaphthalen-2-yl)amino)acetic acid] | < 10 | < 1000 | > 1000 | < 1000 |
| O=C(O)C1CN(C2COc3cc(OCc4cccc(Cl)c4)ccc3C2)C1 (stereo not drawn) [Compound 24, 1-(7-((3-chlorobenzyl)oxy)chroman-3-yl)azetidine-3-carboxylic acid] | 1000 to 10000 | > 1000 | > 1000 | > 1000 |
| O=C(O)C12CC(NC3CCc4cc(OCc5c(Cl)cccc5Cl)ccc4C3)(C1)C2 (stereo not drawn) [Compound 32, 3-((6-((2,6-dichlorobenzyl)oxy)-1,2,3,4-tetrahydronaphthalen-2-yl)amino)bicyclo[1.1.1]pentane-1-carboxylic acid] | < 10 | > 1000 | > 1000 | < 1000 |
| O=C(O)C1CN(C2COc3cc(-c4ccc(OCc5ccc(Cl)cc5)cc4)ccc3C2)C1 (stereo not drawn) [Compound 54, 1-(7-(4-((4-chlorobenzyl)oxy)phenyl)chroman-3-yl)azetidine-3-carboxylic acid] | < 10 | > 1000 | > 1000 | > 1000 |
| O=C(O)CNC1COc2cc(OCc3c(Cl)cccc3Cl)ccc2C1 (stereo not drawn) [Compound 35, 2-((7-((2,6-dichlorobenzyl)oxy)chroman-3-yl)amino)acetic acid] | 100 to 1000 | > 1000 | > 1000 | < 1000 |
